According to patent US11807852B2, “Compositions and methods for reactivating latent immunodeficiency virus” (The J. David Gladstone Institutes, a testamentary trust …, priority 2014, dated 2023):
Entries after “also recorded” stand apart in the source; their conditions may differ. Where two headings read alike, the source gives them in different places.

Columns and labels:
[1] = system: J-Lat A72 cell line (LTR-GFP); settings: A72 J-Lat cells; for activation of GFP expression / reactivation of the HIV-LTR: single agent
Experimental: J-Lat (clones A2 and A72) cell lines were cultured as described in Jordan et al., EMBO J. 2003 Apr. 15:22(8):1868-77. Human αCD3/αCD28 beads (Life Technologies) were used at a concentration of 1 bead/cell ratio. JQ1 (Sigma-Aldrich) was used at a concentration of 0.1-10 μM. Ingenol 3,20-dibenzoate (Sigma-Aldrich) was used at concentrations of 5-200 nM, and SAHA (Sigma-Aldrich) was used at concentrations of 110 nM, 330 nM, or 1 μM.
HEK293T cells were obtained from the American Type Culture Collection. J-Lat (clones A2, A72, and 5A8) cell lines were described (Chan et al., 2013; Jordan et al., 2003). HEK293T cells were cultured in DMEM supplemented with 10% FBS, 1% L-glutamine and 1% penicillin-streptomycin (Life Technologies). J-Lat cells were cultured in RPMI supplemented with 10% FBS, 1% L-glutamine and 1% penicillin-streptomycin (Life Technologies). […] TNFα (Sigma-Aldrich) was used at 0.5-10 ng/ml. Human αCD3/αCD28 Dynabeads (Invitrogen) were used at a 1 bead/cell ratio. JQ1 (Cayman Chemical) was used at 0.1-10 μM. Ingenol 3,20-dibenzoate (Santa Cruz Biotechnology) was used at 5-200 nM, and SAHA (Merck) was used at 110 nM, 330 nM, or 1 μM. Phorbol 12-myristate 13-acetate (PMA) (Sigma) was used at 10 nM and ionomycin (Sigma) was used at a concentration of 500 nM. UNC926 (Tocris Bioscience) was used at a concentration of 10 nM-100 μM. AZ505. AZ506, and AZ391 were used at a concentration of 10 nM-10 μM.
ShRNA-expressing lentiviral vectors were purchased from Sigma-Aldrich. The pLKO.1 vector containing a scrambled shRNA was used as control. […] J-Lat 5A8, A72 and A2 cells were spininfected with virus (1 ng of p24 per 10^6 cells) containing shRNAs against KMTs or nontargeting control shRNAs and were selected with puronycin (2 μg/ml: Sigma). After 7 days of selection, cells were treated with the indicated concentration of drugs. The percentage of GFP^+ cells was determined after 18 h using a MACSQuant VYB FACS analyzer (Miltenyi Biotech GmbH). Cell viability was monitored by forward-and-side scatter analysis. Analysis was conducted on 3×10,000 live cells per condition. Data were analyzed using FlowJo 9.5 (Tree Star).

[2] = system: latent HIV-1 in primary CD4+ T cells; experiment: Primary T-cell model of HIV latency (Greene model), NL4-3-Luc luciferase; type: cell-based
Experimental: Peripheral blood mononuclear cells (PBMC) were isolated by Ficoll-Hypaque density gradient centrifugation of buffy coats from HIV-seronegative donors (Blood Centers of the Pacific). PBMCs were immediately processed to isolate CD4^+ T cells. Total CD4^+ T cells were isolated by negative selection, according to manufacturer's protocol, with the EasySep CD4^+ T-cell Enrichment Kit (Stem Cell Technologies). Isolated CD4^+ T cells were cultured in RPMI as described above at a concentration of 1×10^6 cells/ml for 24 h before HIV infection.
CD4^+ T cells were counted, collected as pellets by centrifugation at 1500 rpm for 5 min at room temperature, and resuspended in the appropriate volume of concentrated viral NL4-3-Luc supernatant. Typically, 50-200 ng of p24Gag per 4×10^5 CD4^+ T cells were used. Spinoculations with NL4-3-Luc virus were performed in 96-well V-bottom plates with up to […] HLAC or CD4 T cells per well. All spinoculations were performed in volumes of 200 μl or less. Cells and virus were centrifuged at 2000 rpm for 1.5-2 h at room temperature. After spinoculation, cells were pooled and cultured at a concentration of 1×10^6 cells/ml in RPMI 1640 containing 10% FBS and supplemented with 5 μM saquinavir for 3 days to prevent residual spreading infection. Saquinavir was purchased from Sigma.
For reactivation of latent HIV-1 provirus, cells were counted and collected as pellets by centrifugation at 1500 rpm for 10 min. Cells were then plated in 96-well U-bottom plates at concentrations of 1×10^6/200 μl in the presence of the indicated activator. Unless otherwise indicated, cells were cultured either in medium alone or stimulated with 5 μg/ml phytohemagglutinin (PHA) (Sigma), 10 ng/ml TNF-α, anti-CD3+anti-CD28 beads at a ratio of 1:1. SAHA, JQ1 and X2 were tested at the indicated concentrations. Cells were harvested 48 hr after stimulation, washed one time with PBS, and lysed in 60 μl of Cell Lysis Buffer (Promega). After 15 min of lysis, the luciferase activity in cell extracts was quantified with a BD Monolight Luminometer after mixing 20 μl of lysate with 100 μl of substrate (Luciferase Assay System-Promega). Relative light units were normalized to protein content determined by BCA assay (Pierce). Cell survival rates were measured by flow cytometry immediately before lysis.
Since X2 activated HIV from latency in A2 and A72 cell lines, this compound was tested in a primary T-cell model of latency (Lassen, Greene). In this model, CD4+ T cells were infected in a single-round infection with HIV clone NL4-3-Luc to generate a latent infection in vitro. To reactivate latent HIV-1, cells were treated with the indicated compounds or a combination of PHA/IL-2 as a control for maximal activation. X2 in combination with JQ1 reactivated latent HIV-1 at 8-25% of the rate achieved by costimulation with PHA/IL-2 (FIG. 9). X2 in combination with Ingenol 3,20-dibenzoate reactivated latent HIV-1 at 30-85% of the rate achieved by costimulation with PHA/IL-2 (FIG. 10).

N#Cc1cc(C(=O)NCCCN2CCCC2)cc(-c2ccccc2N2CCN(CCc3c[nH]c4ccccc34)CC2)c1 [AZ391]
reactivation of HIV-LTR, combination effect ([1]; co-treatment with JQ1): more than additive effects | reactivation of HIV-LTR, combination effect ([1]; co-treatment with SAHA): less | reactivation of HIV-LTR, combination effect ([1]; co-treatment with ingenol 3,20-dibenzoate): practically no combination effect | GFP+ cells ([1]; high concentrations (5 and 10 μM)): up to 30% | activation of GFP expression / reactivation of the HIV-LTR [1]: activated GFP expression at high concentrations | activation of GFP expression / reactivation of the HIV-LTR ([1]; listed as X2): the same effect was observed in A72 cells | reactivation of latent HIV-1 as % of the rate achieved by costimulation with PHA/IL-2 ([2]; in combination with Ingenol 3,20-dibenzoate): 30-85% | reactivation of latent HIV-1 as % of the rate achieved by costimulation with PHA/IL-2 ([2]; in combination with JQ1): 8-25% | reactivation of latent HIV-1, synergy ([2]; with JQ1): synergy | reactivation of latent HIV-1, combination effect ([2]; with SAHA, listed as X2): modest activation; also recorded: minimal synergy | reactivation of latent HIV-1, synergy ([2]; with ingenol 3,20-dibenzoate): synergy
